This is an account of results in ChEMBL document CHEMBL1268979, “Discovery of highly potent and efficacious MC4R agonists with spiroindane N-Me-1,2,4-triazole privileged structures for the treatment of obesity” (Bioorg Med Chem Lett, 2010).

Broadly, the inhibition in vivo is the change of the read-out against control, counted positive when it falls. In general, half-life refers to the time needed for the level to fall by half in the phase considered. One may read the EC50 as the concentration at which the effect is half-maximal. Usually IC50 stands for the concentration that inhibits the measured activity by half. The bioavailability is the share of a dose that reaches the circulation, judged against a reference dose that is usually intravenous.

Active and inactive are the calls of the source.

For data set [1], the species on record is Homo sapiens. Description: Agonist activity at human MC1b receptor assessed as receptor activation. Details: concentration or dose not given beside the values. Type of data set: functional.
The target in data set [2] is T1, Melanocortin receptor 4 (Homo sapiens, UniProt P32245). Description: Agonist activity at human MC4 receptor assessed as receptor activation. Type of data set: functional.
Data set [3] relates to Mus musculus. Nature of the data set: Reduction in food intake in wild type mouse at 20 mg/kg, po after 4 hrs. In kind it is functional.
The subject of data set [4] is Mus musculus. Description: Reduction in food intake in wild type mouse at 10 mg/kg, po after 4 hrs. In kind it is functional.
Data set [5] deals with Mus musculus. Nature of the data set: Reduction in food intake in DIO mouse obesity model at 3 mg/kg, po after 18 hrs. In kind it is functional.
A short description of data set [6]: Clearance in Sprague-Dawley rat at 1 mg/kg, iv and 4 mg/kg, po. The note with it: in vivo. Type of data set: ADME, organism-based.
The test system of data set [7] is Mus musculus. Nature of the data set: Reduction in food intake in DIO mouse obesity model at 3 mg/kg, po after 4 hrs. Type of data set: functional.
Data set [8] can be described thus: Half life in Sprague-Dawley rat at 1 mg/kg, iv and 4 mg/kg, po. Type of data set: ADME, organism-based. Particulars: in vivo.
Data set [9] is described as follows: Agonist activity at human MC1b receptor. Type of data set: functional.
The test system of data set [10] is Mus musculus. Description: Reduction in food intake in DIO mouse obesity model at 6 mg/kg, po after 4 hrs. In kind it is functional.
Data set [11] deals with Mus musculus. Description: Reduction in food intake in MC4R/3R knockout mouse at 10 mg/kg, po after 18 hrs. Type of data set: functional.
The test system of data set [12] is Mus musculus. Nature of the data set: Reduction in food intake in DIO mouse obesity model at 6 mg/kg, po after 18 hrs. In kind it is functional.
Data set [13] deals with T1, Melanocortin receptor 4. Description: Agonist activity at human MC4 receptor. Type of data set: functional.
Data set [14] concerns Mus musculus. Description: Reduction in food intake in MC4R/3R knockout mouse at 10 mg/kg, po after 4 hrs. Type of data set: functional.
Data set [15] deals with Mus musculus. Nature of the data set: Reduction in food intake in DIO mouse obesity model at 20 mg/kg, po after 4 hrs. In kind it is functional.
Data set [16] concerns the target T1, Melanocortin receptor 4. Nature of the data set: Inhibition of human MC4 receptor.
Data set [17] has as its system Mus musculus. Nature of the data set: Reduction in food intake in wild type mouse at 20 mg/kg, po after 18 hrs. In kind it is functional.
The test system of data set [18] is Mus musculus. Description: Reduction in food intake in DIO mouse obesity model at 20 mg/kg, po after 18 hrs. Type of data set: functional.
Data set [19] in a line: Oral bioavailability in Sprague-Dawley rat at 1 mg/kg, iv and 4 mg/kg, po. In kind it is ADME, organism-based. The note with it: in vivo.
Data set [20] concerns Mus musculus. Description: Reduction in food intake in wild type mouse at 10 mg/kg, po after 18 hrs. Type of data set: functional.
Data set [21] can be described thus: Volume of distribution in Sprague-Dawley rat at 1 mg/kg, iv and 4 mg/kg, po. In kind it is ADME, organism-based. Particulars: in vivo.
The test system of data set [22] is Mus musculus. Nature of the data set: Reduction in body weight in DIO mouse obesity model at 20 mg/kg, po after 4 hrs. In kind it is functional, organism-based. Details: dose 20 mg/kg.
The test system of data set [23] is Mus musculus. Description: Reduction in food intake in DIO mouse obesity model at 1 mg/kg, po measured for 18 hrs. In kind it is functional.
Data set [24] has as its system Mus musculus. Description: Reduction in food intake in DIO mouse obesity model at 3 mg/kg, po measured for 18 hrs. In kind it is functional.
In data set [25] the test system is Mus musculus. Nature of the data set: Reduction in body weight in DIO mouse obesity model at 6 mg/kg, po after 4 hrs. Details: dose 6 mg/kg. Type of data set: functional, organism-based.
For data set [26], the system named is Mus musculus. Description: Reduction in food intake in DIO mouse obesity model at 10 mg/kg, po measured for 18 hrs. In kind it is functional.
Data set [27] has as its system Mus musculus. Nature of the data set: Reduction in body weight in DIO mouse obesity model at 3 mg/kg, po after 4 hrs. Type of data set: functional, organism-based. Also noted: dose 3 mg/kg.

T1 sequence (P32245 whole entry): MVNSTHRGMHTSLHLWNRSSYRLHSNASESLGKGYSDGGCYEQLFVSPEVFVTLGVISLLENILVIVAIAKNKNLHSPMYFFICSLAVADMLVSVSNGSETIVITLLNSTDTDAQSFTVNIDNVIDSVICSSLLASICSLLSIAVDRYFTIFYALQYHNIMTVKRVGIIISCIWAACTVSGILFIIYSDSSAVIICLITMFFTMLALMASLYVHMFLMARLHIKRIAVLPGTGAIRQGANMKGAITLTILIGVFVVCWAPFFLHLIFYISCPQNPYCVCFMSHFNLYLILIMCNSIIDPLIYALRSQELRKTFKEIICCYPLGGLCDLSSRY

In the case of `Cc1cc2c(cc1Cl)C1(CCN(C(=O)[C@@H]3CN(C(C)(C)C)C[C@H]3c3ccc(F)cc3F)CC1)CC2C(C)(C)c1nnco1` (stereo in doubt; 5d2) [listing 1 of 2 here], the Activity was 57% in data set [1] and 92% in data set [2].
As to `Cc1cc2c(cc1Cl)C1(CCN(C(=O)[C@@H]3CCN(C(C)(C)C)C[C@H]3c3ccc(F)cc3F)CC1)C[C@@H]2C(C)(C)c1ncnn1C`, the inhibition in vivo at 20 mg/kg in data set [3] was found to be 24%; in [15], 30%; in data set [17] it was 17%; in [18] it was 15%. The inhibition in vivo at 10 mg/kg was 46% in data set [4], 19% in [11], 40% in [14] and 37% in data set [20]. The inhibition in vivo at 3 mg/kg in data set [5] was 8%; in [7], 29%. Also, the Activity in [1] stood at 37%; in data set [2] it was 96%. Further, the clearance in data set [6] came to 22 mL/min/kg. In data set [8], the half-life was 11 h. For the same compound, the concentration giving a half-maximal response (EC50) in [9] was 1050 nM; in [13] it was 2.4 nM. For the same compound, the inhibition in vivo at 6 mg/kg in data set [10] turned out to be 47%; in [12], 31%. The midpoint of inhibition in data set [16], the IC50, lay at 1.7 nM. This compound displayed a bioavailability in data set [19] of 86%. The same compound showed a Vd in data set [21] of 19 L/kg.
Regarding `Cc1cc2c(cc1Cl)C1(CCN(C(=O)[C@@H]3CN(C(C)(C)C)C[C@H]3c3ccc(F)cc3F)CC1)CC2C(C)(C)c1nnco1` (stereo in doubt; 5d1) [listing 1 of 2 here], in [13], the 50% effective concentration (EC50) was 211 nM. Also, the midpoint of inhibition in [16], the IC50, lay at 49 nM.
As for `Cc1cc2c(cc1Cl)C1(CCN(C(=O)[C@@H]3CN(C(C)(C)C)C[C@H]3c3ccc(F)cc3F)CC1)CC2C(C)(C)c1nnco1` (stereo in doubt; 5d1) [listing 2 of 2 here], the Activity in data set [1] was 10%; in data set [2], 117%.
On to `Cc1cc2c(cc1Cl)C1(CCN(C(=O)[C@@H]3CN(C(C)(C)C)C[C@H]3c3ccc(F)cc3F)CC1)CC2C(C)(C)c1nnco1` (stereo in doubt; 5d2) [listing 2 of 2 here], for which the EC50 in [9] worked out at 138 nM; in data set [13], 2.2 nM. Besides, in [16], half-maximal inhibition (IC50) required 1.3 nM.
Regarding `Cc1cc2c(cc1Cl)C1(CCN(C(=O)[C@@H]3CC(N(C)C4CCOCC4)C[C@H]3c3ccc(F)cc3F)CC1)C[C@@H]2C(C)(C)c1ncnn1C` (stereo not given in full), the inhibition in vivo at 20 mg/kg came to 35% in [3], 39% in data set [15], 18% in [17] and 17% in data set [18]. For the same compound, the inhibition in vivo at 10 mg/kg in [4] turned out to be 46%; in data set [26] it was 31%; in [20], 30%. Besides, the inhibition in vivo at 3 mg/kg was 15% in data set [5], 31% in data set [7] and 56% in [24]. In addition, the values for the Activity in data set [1] and in data set [2] were 49% and 99%, respectively. This compound showed a clearance in [6] of 24 mL/min/kg. In addition, the outcome in data set [22], in [25] and in data set [27] was Active. The compound also showed a half-life in data set [8] of 5.1 h. Besides, testing at 1 mg/kg in [23] gave an inhibition in vivo of 32%. For the same compound, the EC50 was determined as 250 nM in data set [9] and 0.11 nM in data set [13]. Besides, the inhibition in vivo at 6 mg/kg in [10] came to 56%; in data set [12] it was 28%. In data set [16], this compound showed an IC50 of 0.43 nM. The bioavailability in [19] worked out at 20%. Further, the Vd in data set [21] was found to be 9.7 L/kg.
Regarding `Cc1nc(C(C)(C)C2CC3(CCN(C(=O)[C@@H]4CN(C(C)(C)C)C[C@H]4c4ccc(F)cc4F)CC3)c3cc(Cl)c(C)cc32)no1` (stereo not given in full), the Activity came to 46% in [1] and 71% in [2]. Also, the EC50 in data set [9] is 855 nM; in data set [13], 14 nM. Moreover, the IC50 in data set [16] stood at 5.7 nM.
In the same order, the values of `Cc1nnc(C(C)(C)[C@H]2CC3(CCN(C(=O)[C@@H]4CN(C(C)(C)C)C[C@H]4c4ccc(F)cc4F)CC3)c3cc(Cl)c(C)cc32)o1` are 88%, 97%, 1140 nM, 2.3 nM and 1.9 nM.
In the same order, the values of `Cc1cnc(C(C)(C)[C@H]2CC3(CCN(C(=O)[C@@H]4CN(C(C)(C)C)C[C@H]4c4ccc(F)cc4F)CC3)c3cc(Cl)c(C)cc32)o1` are 57%, 99%, 1650 nM, 48 nM and 9.7 nM.
In the case of `Cc1cc2c(cc1Cl)C1(CCN(C(=O)[C@@H]3CN(C(C)(C)C)C[C@H]3c3ccc(F)cc3F)CC1)C[C@@H]2C(C)(C)c1ncnn1C`, the inhibition in vivo at 20 mg/kg in data set [3] was 24%; in [15], 38%; in [17], 17%; in data set [18], 18%. Moreover, the inhibition in vivo at 10 mg/kg in data set [4] came out at 47%; in [11], 43%; in data set [14], 67%; in data set [20] it was 32%. Further, the results for the inhibition in vivo at 3 mg/kg in data set [5] and in data set [7] were 16% and 29%, respectively. In addition, the figures for the Activity in data set [1] and in data set [2] were 80% and 106%, respectively. The same compound yielded a clearance in data set [6] of 6.7 mL/min/kg. In addition, the half-life in data set [8] is 9.4 h. The values for the concentration for a half-maximal effect (EC50) in data set [9] and in data set [13] were 125 nM and 0.23 nM, respectively. The figures for the inhibition in vivo at 6 mg/kg in [10] and in [12] were 51% and 27%, respectively. In addition, the IC50 in data set [16] is 0.41 nM. Also, the bioavailability in data set [19] is 26%. The Vd in [21] was determined as 5 L/kg.
`Cc1cc2c(cc1Cl)C1(CCN(C(=O)[C@@H]3CN(C4CCOCC4)C[C@H]3c3ccc(F)cc3F)CC1)C[C@@H]2C(C)(C)c1ncnn1C`: the inhibition in vivo at 20 mg/kg was found to be 28% in [3], 31% in [15], 13% in data set [17] and 11% in [18]. The inhibition in vivo at 10 mg/kg in data set [4] is 40%; in [14], 20%; in [20] it was 22%. Moreover, the Activity in data set [1] came out at 54%; in [2], 105%. The compound also had a clearance in [6] of 37 mL/min/kg. In addition, the inhibition in vivo at 3 mg/kg in data set [7] stood at 19%. The half-life in data set [8] is 3.4 h. Moreover, the EC50 amounted to 708 nM in [9] and 0.9 nM in [13]. The inhibition in vivo at 6 mg/kg in [10] was determined as 37%; in data set [12] it was 18%. The compound also displayed a concentration for half-maximal inhibition (IC50) in [16] of 0.84 nM. In [19], this compound came in with a bioavailability of 35%. In [21], the Vd stood at 10 L/kg.
`Cc1cc2c(cc1Cl)C1(CCN(C(=O)[C@@H]3CN(C(C)(C)C)C[C@H]3c3ccc(F)cc3F)CC1)CC2C(C)(C)c1cnn[nH]1` (stereo not given in full): the Activity in data set [1] was 31%; in [2], 82%. For the same compound, the values for the concentration for a half-maximal effect (EC50) in data set [9] and in [13] were 1040 nM and 4.2 nM, respectively. Also, in [16], the IC50 was found to be 16 nM.
